# Data from ChEMBL document CHEMBL1201862, “PubChem BioAssay data set” (2004).
# The source made the active and inactive calls. Peptide text beside a SMILES is read from it. * marks the point of attachment. Cbz = O=C(OCc1ccccc1)*
# Columns and labels:
# [1] = target: T1, Interleukin-8 (Homo sapiens, UniProt P10145); assay: Dose Response confirmation of uHTS small molecule hits for cystic fibrosis induced NFkb Inhibitors in a PAF-induced IL8 counterscreen.; type: functional; conditions: read-out: IC50_Mean
# [2] = target: T1, Interleukin-8; assay: Dose Response confirmation of uHTS small molecule hits for cystic fibrosis induced NFkb Inhibitors in a TNFa-induced IL8 counterscreen.; type: functional; conditions: read-out: IC50_Mean
# [3] = target: T2, Tyrosine-protein phosphatase non-receptor type 22 (Homo sapiens, UniProt Q9Y2R2); assay: LYP phosphatase inhibition for selectivity, dose response, selectivity assay for LMPTP inhibitor project, biochemical, fluorescence, LYP catalytic domain (AID 652006); type: functional; conditions: read-out: IC50_Mean
# T2 sequence (Q9Y2R2 whole entry): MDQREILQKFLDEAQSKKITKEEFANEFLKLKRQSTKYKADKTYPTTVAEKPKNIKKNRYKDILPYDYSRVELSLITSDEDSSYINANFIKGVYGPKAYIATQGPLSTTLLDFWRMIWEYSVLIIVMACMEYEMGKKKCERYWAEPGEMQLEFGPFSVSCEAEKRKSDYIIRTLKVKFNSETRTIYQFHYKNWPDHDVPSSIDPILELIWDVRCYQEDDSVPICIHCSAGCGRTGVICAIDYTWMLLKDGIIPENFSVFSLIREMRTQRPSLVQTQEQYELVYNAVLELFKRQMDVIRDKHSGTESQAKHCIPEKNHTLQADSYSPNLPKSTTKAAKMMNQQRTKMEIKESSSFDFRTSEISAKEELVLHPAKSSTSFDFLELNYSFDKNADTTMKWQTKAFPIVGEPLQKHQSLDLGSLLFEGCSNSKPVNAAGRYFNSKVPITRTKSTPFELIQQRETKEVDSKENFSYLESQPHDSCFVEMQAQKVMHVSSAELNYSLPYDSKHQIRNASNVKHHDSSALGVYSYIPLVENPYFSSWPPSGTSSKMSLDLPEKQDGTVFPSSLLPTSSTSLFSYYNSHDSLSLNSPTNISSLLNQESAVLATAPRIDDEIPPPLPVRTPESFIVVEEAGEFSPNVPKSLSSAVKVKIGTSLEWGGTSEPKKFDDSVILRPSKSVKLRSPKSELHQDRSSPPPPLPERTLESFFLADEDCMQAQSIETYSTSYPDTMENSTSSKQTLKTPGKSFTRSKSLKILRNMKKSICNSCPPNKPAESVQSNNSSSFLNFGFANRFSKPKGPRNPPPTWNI
# [4] = cytotoxicity in HPDE-C7 cells, cell-based, fluorescence, HTS (AID 430); type: functional; conditions: Homo sapiens
# [5] = cytotoxicity in KRAS-transformed pancreatic duct cells, primary screen, cell-based, fluorescence, HTS (AID 431); type: functional; conditions: Homo sapiens;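 note: cell line used: HPDE-C7K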
# [6] = growth suppression of beta-catenin-knockout colon cells, dose response, cell-based, HCT116, human colon tumor (AID 1045); type: functional;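 note: HCT116 colon tumor cells with beta catenin knocked out; cells exposed to compound for 60 hours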
# [7] = target: T3, Low molecular weight phosphotyrosine protein phosphatase (Homo sapiens, UniProt P24666); type: functional; conditions: read-out: IC50_Mean;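 note: Dose-response confirmation assay measuring inhibition of LMPTP enzyme activity by fluorescence intensity read-out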
# T3 sequence (P24666 whole entry): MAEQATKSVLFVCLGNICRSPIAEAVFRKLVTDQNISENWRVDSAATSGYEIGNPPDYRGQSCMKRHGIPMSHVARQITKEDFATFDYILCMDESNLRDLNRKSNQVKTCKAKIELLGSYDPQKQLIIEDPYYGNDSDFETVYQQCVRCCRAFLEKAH
# [8] = growth suppression of PTEN-null colon cells, dose response, cell-based, HCT116 PTEN knockout (AID 1047); type: functional;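 note: HCT116 colon tumor cells with PTEN knocked out; cells exposed to compound for 60 hours before readout; potency for loss of cell viability measured by luminescence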
# [9] = target: Heat shock protein HSP 90-alpha (Homo sapiens, UniProt P07900); type: functional, organism-based
# [10] = cells
# [11] = inhibitors of intracellular T. cruzi replication, confirmation, NIH3T3 host cells, beta-gal luminescence (AID 2044); type: functional, cell-based;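 note: intracellular parasites grown in NIH/3T3 mouse fibroblasts as host cells; luminescent beta-galactosidase reporter signal from transgenic T. cruzi replicating inside host cells; inhibitors lower the luminescence signal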
# [12] = target: Aryl hydrocarbon receptor (Homo sapiens, UniProt P35869); conditions: Potency;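 note: confirmatory quantitative high-throughput screen measuring activation of the AhR signaling pathway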
# [13] = cytotoxicity toward NIH3T3 fibroblasts, dose response, counter-screen, cell-based, ATP luminescence, mouse fibroblasts (AID 2010); type: functional;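 note: cells exposed to compound for about 90 hours before reading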
# [14] = Luminescence Cell-Based Dose Confirmation HTS to Identify Activators of 5'UTR Stem-Loop Driven Alpha-Synuclein mRNA Translation in H4 Neuroglioblastoma Cells. [Related pubchem assays: 1829 (Project Summary), 1814 (Primary HTS)]; type: functional
# [15] = target: 26S proteasome non-ATPase regulatory subunit 14 (Homo sapiens, UniProt O00487); assay: inhibition of proteasome subunit RPN11 – biochemical, fluorescence polarization, uHTS hits, confirmation (AID 602368); type: functional
# [16] = target: 72 kDa type IV collagenase (Homo sapiens, UniProt P08253); assay: Dose Response validation of uHTS RPN11 inhibitor hits using a MMP-2 Fluorescence assay.; type: functional
# [17] = Luminescence Cell-Based Dose Response HTS to Identify Activators of Luciferase Translation or Activity in H4 […] Cells. [Related pubchem assays: 1829 (Project Summary), 1814 (Primary HTS)]; type: functional
# [18] = target: Prothrombin (Bos taurus, UniProt P00735); assay: thrombin inhibition, dose response, biochemical, fluorescence polarization, uHTS hits (AID 602369); type: functional
# [19] = system: H4; assay: Luminescence Cell-Based Dose Response HTS to Identify Activators of 5'UTR Stem-Loop Driven Prion Protein mRNA Translation in H4 Neuroglioblastoma Cells. [Related pubchem assays: 1829 (Project Summary), 1814 (Primary HTS)]; type: functional; conditions: Homo sapiens
# [20] = target: T4, Rac GTPase-activating protein 1 (Homo sapiens, UniProt Q9H0H5); assay: MgcRacGAP GTPase-activating activity inhibitors, confirmation, biochemical, ADP Hunter fluorescence, primary and confirmatory (AID 624330); type: functional
# T4 sequence (Q9H0H5 whole entry): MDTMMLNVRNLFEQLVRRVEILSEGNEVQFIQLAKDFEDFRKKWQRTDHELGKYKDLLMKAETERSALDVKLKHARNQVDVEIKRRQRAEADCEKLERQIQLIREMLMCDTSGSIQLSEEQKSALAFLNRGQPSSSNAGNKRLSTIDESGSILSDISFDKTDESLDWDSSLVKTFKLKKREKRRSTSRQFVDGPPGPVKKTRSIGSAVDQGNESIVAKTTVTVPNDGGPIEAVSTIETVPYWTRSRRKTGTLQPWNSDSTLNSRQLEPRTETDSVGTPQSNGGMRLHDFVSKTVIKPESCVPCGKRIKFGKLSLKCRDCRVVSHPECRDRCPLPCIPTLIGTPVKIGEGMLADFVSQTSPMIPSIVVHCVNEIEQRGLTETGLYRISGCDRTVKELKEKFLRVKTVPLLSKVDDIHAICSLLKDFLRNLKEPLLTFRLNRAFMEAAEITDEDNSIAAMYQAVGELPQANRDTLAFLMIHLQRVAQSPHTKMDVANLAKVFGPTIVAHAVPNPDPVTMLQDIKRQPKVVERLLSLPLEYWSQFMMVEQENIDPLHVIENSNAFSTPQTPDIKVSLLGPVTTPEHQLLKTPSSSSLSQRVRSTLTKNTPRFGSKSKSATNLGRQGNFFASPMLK
# [21] = Vero cell cytotoxicity, cytotoxicity control for M. tuberculosis inhibitor project, purified and synthesized samples, set 3 (AID 504684); type: functional
# [22] = A Cell Based Secondary Assay to Explore Cytotoxicity in THP-1 Cells of Compounds that Modulate Mycobacterium tuberculosis in Media Containing Glycerol versus Media without Glycerol (2).; type: functional
# [23] = target: T5, Serine/threonine-protein phosphatase (Candida dubliniensis (strain CD36 / CBS 7987 / NCPF 3949 / NRRLY-17841) (Yeast), UniProt B9W6M3); assay: calcineurin pathway inhibitors in yeast reporter, dose response, S. cerevisiae, CDRE-lacZ, luminescence, secondary (AID 2388); type: functional, cell-based;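 note: yeast reporter cells carrying a calcineurin-responsive lacZ construct stimulated with calcium chloride; luminescent beta-galactosidase reporter signal in whole cells rather than isolated phosphatase activity; potency for inhibition where a drop in reporter signal means calcineurin blockade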
# T5 sequence (B9W6M3 whole entry): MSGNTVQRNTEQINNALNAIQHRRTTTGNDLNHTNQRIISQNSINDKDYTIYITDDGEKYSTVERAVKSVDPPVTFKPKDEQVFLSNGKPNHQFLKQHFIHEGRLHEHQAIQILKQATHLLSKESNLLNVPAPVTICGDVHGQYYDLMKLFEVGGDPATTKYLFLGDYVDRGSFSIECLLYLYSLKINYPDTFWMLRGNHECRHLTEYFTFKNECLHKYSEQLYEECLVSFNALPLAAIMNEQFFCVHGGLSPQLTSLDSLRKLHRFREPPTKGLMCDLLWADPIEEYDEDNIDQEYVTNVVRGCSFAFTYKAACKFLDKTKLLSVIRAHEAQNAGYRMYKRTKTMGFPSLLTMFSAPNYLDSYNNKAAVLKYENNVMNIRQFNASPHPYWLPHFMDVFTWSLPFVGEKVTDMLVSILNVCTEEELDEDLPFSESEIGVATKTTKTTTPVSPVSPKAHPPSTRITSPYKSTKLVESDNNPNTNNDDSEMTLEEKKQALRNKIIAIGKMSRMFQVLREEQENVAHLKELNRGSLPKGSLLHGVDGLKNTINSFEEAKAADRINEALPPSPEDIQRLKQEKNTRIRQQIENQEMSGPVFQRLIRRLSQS
# [24] = target: ATP-dependent molecular chaperone HSP82 (Candida albicans (strain WO-1) (Yeast), UniProt C4YTQ8); assay: loss of DOC-induced GRE-beta-galactosidase reporter signal, dose response, Hsp90 inhibitor project, S. cerevisiae, luminescence (AID 2400); type: functional, cell-based;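 note: beta-galactosidase luminescence from glucocorticoid response element reporter as proxy for Hsp90 function; inhibitor potency where signal loss means Hsp90 inhibition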
# [25] = target: Benomyl/methotrexate resistance protein (Candida albicans, UniProt P28873); assay: CaMdr1 efflux pump inhibitor potency, dose response, singleplex, Cherry Pick1 hits (AID 588608); type: functional
# [26] = C. albicans growth with fluconazole, confirmation, fluorescence, retest (AID 2467); type: functional, cell-based
# [27] = NIH-3T3 fibroblast cytotoxicity, dose response, cytotoxicity control, cell-based, fluorescence, Alamar Blue, secondary assay (AID 2327); type: functional;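 note: NIH-3T3 mouse fibroblasts cultured with fluconazole at 8 µg/mL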
# [28] = HeLa cell cytotoxicity, dose response, cytotoxicity control for MgcRacGAP inhibitor project (AID 624300); type: functional
# [29] = target: Melanocortin receptor 4 (Homo sapiens, UniProt P32245); assay: MC4R antagonist potency on cAMP, dose response, cell-based, TR-FRET, biased antagonists (AID 602298); type: functional;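 note: antagonist potency against agonist-stimulated cAMP production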
# [30] = nonselective inhibitors of cellular cAMP signaling, dose response, counter-screen for MC4R biased antagonist project, cell-based, TR-FRET cAMP detection (AID 602305); type: functional;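 note: U2OS cells stimulated with forskolin near its EC80 as the cAMP inducer; potency is for inhibition of forskolin-stimulated cAMP signaling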
# [31] = target: T6, Fatty acid synthase (Homo sapiens, UniProt P49327); assay: FAS thioesterase domain inhibitors, dose response, biochemical, endpoint fluorescence intensity, uHTS hits (AID 624327); type: functional;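 note: fluorescence from hydrolysis of an O-methyl fluorescein acyl ester substrate by the enzyme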
# [32] = target: T6, Fatty acid synthase; assay: FAS thioesterase domain inhibitors, dose response, biochemical, kinetic fluorescence intensity (AID 624326); type: functional;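 note: rate of fluorescence rise from hydrolysis of a fluorogenic O-methyl fluorescein ester substrate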
# [33] = AlphaScreen signal interference compounds, dose response, artefact control for ARNT-TACC3 interaction inhibitor project, biochemical, luminescence, cherry-pick (AID 651705); type: functional;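 note: AlphaScreen bead proximity signal that flags compounds interfering with the detection technology; potency reflects signal decrease which marks the compound as an assay artifact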
# T1 sequence (P10145 whole entry): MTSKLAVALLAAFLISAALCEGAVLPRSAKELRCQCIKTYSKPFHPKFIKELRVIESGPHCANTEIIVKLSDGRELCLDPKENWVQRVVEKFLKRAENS
# T6 sequence (P49327 whole entry, the tested form may be a part): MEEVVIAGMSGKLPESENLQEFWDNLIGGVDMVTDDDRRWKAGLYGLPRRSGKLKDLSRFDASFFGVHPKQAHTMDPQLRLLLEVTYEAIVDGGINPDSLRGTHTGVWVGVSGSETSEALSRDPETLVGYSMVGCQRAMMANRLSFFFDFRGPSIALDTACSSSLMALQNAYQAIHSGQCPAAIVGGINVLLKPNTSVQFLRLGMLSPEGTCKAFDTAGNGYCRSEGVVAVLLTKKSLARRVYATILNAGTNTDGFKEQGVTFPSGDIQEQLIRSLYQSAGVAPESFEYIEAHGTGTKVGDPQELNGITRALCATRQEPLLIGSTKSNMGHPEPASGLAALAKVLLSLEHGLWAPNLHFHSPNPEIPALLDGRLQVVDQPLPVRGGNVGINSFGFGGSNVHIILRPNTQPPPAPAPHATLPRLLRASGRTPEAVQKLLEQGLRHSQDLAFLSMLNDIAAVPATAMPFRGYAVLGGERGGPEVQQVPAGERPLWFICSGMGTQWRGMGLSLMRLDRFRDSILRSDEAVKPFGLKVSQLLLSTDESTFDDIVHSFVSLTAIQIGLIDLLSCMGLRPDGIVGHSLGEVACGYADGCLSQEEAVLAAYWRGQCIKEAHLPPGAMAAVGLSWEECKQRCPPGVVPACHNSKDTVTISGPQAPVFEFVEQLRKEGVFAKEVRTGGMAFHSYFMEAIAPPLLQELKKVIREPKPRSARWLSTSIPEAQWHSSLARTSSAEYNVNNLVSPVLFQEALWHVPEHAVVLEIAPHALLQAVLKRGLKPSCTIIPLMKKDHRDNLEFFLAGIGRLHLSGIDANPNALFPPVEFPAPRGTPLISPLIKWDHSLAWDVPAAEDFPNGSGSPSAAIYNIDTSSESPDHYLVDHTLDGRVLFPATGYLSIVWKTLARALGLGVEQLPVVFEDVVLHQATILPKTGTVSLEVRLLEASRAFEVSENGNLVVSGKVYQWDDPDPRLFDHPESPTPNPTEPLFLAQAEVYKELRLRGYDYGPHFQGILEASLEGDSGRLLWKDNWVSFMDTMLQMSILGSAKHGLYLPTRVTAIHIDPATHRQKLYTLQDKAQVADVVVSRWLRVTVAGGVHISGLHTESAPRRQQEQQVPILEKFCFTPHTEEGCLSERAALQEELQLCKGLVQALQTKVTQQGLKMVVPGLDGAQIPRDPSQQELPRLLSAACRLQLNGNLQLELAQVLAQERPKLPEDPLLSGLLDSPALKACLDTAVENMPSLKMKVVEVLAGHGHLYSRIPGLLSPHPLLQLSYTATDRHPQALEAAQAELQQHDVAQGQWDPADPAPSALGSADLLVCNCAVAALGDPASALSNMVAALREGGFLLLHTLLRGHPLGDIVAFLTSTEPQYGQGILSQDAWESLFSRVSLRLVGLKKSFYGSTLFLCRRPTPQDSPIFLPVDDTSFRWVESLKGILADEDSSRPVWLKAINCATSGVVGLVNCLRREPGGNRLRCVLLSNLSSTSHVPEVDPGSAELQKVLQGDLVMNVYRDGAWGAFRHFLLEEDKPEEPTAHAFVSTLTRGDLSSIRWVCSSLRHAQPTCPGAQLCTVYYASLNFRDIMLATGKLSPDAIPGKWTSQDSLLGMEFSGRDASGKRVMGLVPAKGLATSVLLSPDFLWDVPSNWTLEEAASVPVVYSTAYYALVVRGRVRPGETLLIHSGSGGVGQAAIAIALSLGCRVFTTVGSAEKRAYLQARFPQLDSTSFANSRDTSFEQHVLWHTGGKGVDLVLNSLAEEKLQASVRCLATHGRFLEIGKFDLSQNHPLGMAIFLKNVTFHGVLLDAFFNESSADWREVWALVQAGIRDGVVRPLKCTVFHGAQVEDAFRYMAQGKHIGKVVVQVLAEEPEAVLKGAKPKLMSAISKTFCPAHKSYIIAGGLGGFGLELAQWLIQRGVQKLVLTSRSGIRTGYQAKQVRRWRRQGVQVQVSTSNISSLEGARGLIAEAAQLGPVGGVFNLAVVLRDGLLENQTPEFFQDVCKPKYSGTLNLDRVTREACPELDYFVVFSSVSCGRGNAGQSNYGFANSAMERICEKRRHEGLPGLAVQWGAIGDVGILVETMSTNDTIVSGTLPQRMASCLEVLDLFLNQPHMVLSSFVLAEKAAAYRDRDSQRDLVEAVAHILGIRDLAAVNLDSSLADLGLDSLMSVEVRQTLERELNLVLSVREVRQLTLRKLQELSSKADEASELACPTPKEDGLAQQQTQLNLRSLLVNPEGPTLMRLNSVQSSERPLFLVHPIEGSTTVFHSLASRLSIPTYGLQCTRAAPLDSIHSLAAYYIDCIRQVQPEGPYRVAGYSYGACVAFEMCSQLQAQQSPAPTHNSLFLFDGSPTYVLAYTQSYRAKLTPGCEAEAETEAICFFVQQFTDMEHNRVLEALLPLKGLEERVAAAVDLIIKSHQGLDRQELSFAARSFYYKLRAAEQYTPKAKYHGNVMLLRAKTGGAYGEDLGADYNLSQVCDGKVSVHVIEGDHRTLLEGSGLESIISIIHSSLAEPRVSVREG
# Sequence of 72 kDa type IV collagenase (P08253 whole entry): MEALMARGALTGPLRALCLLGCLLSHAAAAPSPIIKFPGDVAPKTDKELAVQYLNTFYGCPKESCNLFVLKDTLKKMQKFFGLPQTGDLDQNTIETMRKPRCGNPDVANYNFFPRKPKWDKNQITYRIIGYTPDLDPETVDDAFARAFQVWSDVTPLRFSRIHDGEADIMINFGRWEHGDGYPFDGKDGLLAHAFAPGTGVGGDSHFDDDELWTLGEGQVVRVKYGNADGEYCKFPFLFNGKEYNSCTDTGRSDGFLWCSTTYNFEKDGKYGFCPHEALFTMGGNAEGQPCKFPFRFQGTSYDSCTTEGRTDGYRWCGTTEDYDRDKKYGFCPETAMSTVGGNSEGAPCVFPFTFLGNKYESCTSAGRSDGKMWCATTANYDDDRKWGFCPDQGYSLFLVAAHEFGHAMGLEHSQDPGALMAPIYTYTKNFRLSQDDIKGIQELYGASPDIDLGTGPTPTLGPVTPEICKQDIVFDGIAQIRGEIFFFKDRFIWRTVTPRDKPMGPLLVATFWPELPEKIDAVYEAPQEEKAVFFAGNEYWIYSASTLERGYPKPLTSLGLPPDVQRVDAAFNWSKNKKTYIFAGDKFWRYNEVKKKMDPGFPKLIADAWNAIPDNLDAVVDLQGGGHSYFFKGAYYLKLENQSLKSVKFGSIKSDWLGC
# Sequence of Melanocortin receptor 4 (P32245 whole entry): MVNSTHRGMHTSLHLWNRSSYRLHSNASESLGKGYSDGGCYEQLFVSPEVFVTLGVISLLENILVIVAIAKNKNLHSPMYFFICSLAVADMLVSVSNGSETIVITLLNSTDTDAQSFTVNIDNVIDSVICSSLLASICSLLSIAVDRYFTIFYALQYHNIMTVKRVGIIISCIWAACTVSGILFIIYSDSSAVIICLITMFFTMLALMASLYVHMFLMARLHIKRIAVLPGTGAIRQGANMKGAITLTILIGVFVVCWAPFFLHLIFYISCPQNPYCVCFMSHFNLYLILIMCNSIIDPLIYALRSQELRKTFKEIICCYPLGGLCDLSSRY
# Sequence of 26S proteasome non-ATPase regulatory subunit 14 (O00487 whole entry): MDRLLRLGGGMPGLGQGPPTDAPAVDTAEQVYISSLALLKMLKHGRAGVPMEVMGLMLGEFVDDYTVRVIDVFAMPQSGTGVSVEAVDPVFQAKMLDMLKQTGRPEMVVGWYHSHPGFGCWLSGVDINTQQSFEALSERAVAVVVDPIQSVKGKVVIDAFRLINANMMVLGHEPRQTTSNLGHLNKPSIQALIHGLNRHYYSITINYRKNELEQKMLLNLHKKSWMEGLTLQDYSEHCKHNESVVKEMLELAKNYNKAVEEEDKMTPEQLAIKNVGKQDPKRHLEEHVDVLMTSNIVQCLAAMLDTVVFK
# Sequence of Benomyl/methotrexate resistance protein (P28873 whole entry): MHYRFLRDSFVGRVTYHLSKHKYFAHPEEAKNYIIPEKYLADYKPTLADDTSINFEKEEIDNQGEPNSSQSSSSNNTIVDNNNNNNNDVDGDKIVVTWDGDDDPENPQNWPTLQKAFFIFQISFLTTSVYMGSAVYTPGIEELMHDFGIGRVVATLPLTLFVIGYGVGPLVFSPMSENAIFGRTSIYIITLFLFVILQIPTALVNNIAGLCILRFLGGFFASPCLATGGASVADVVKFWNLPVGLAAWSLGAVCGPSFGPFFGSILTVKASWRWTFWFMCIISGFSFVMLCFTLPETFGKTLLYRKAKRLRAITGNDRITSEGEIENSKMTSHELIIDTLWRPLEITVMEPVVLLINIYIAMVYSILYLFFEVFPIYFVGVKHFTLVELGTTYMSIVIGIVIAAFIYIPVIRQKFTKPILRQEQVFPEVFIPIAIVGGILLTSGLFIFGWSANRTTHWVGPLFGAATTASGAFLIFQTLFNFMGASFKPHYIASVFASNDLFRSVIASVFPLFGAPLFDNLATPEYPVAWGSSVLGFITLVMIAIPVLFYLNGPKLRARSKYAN
compound,measurement,setting,value
CN1CCC(OC(=O)c2cc3cc(Cl)cc(Cl)c3oc2=O)CC1,IC50,[1],3.45 µM (active)
same,IC50,[2],8.62 µM (active)
CC(=O)Nc1ccc(S(=O)(=O)N2CCN(c3nc(NC4CCCC4)c4ccccc4n3)CC2)cc1,IC50,[3],28.2 µM (inactive)
same,EC50,[4],12.4 µM (active)
same,EC50,[5],13.2 µM (active)
same,EC50,[6],12.7 µM (active)
same,IC50,[7],20.7 µM (inactive)
same,EC50,[8],13.7 µM (active)
CCCC1COC(Cn2cncn2)(c2ccc(Cl)cc2Cl)O1 (centres undefined) [PROPICONAZOLE],AC50,[9],< 0.195 µM (active)
same,EC50,[10],0.041 µM (active)
same,EC50,[11],< 0.1 µM (active)
same,AC50,[12],70.8 µM (inconclusive)
same,EC50,[13],> 60 µM (not active)
Cc1c(N=Nc2ccc(N(C)C)cc2)c(=O)n(-c2ccccc2)n1C,EC50,[14],11.1 µM (active)
same,IC50,[15],73.1 µM (active)
same,IC50,[16],> 100 µM (inactive)
same,EC50,[17],6.8 µM (active)
same,IC50,[18],42.8 µM (active)
same,EC50,[19],34.5 µM (active)
same,IC50,[20],56.9 µM (active)
CCOC(=O)CNC(=O)[C@H](Cc1ccccc1)NC(=O)OCc1ccccc1 (Cbz-Phe-Gly-OEt),CC50,[21],32.1 µM (active)
same,CC50,[22],58.5 µM (active)
Cn1cc(C(c2ccccn2)c2cn(C)c3ccccc23)c2ccccc21,EC50,[23],> 180 µM (inactive)
same,EC50,[24],> 150 µM (inactive)
same,EC50,[25],7.76 µM (active)
same,EC50,[26],0.157 µM (active)
same,EC50,[27],55.6 µM (active)
CCc1ccc(O)c(/N=C/c2cccc(C)c2O)c1,IC50,[15],29.4 µM (active)
same,IC50,[16],> 100 µM (inactive)
same,IC50,[18],11.8 µM (active)
same,CC50,[28],100 µM (active)
same,IC50,[20],45.5 µM (active)
O=C(COC(=O)CCN1C(=O)c2cccc([N+](=O)[O-])c2C1=O)NCc1ccccc1,IC50,[29],> 64.6 µM (inactive)
same,IC50,[30],> 64.6 µM (inactive)
COc1ccc(NC(=O)Nc2cccc3c2O[C@H](CN(C)C(=O)Nc2ccc(C(F)(F)F)cc2)[C@@H](C)CN([C@H](C)CO)C3=O)cc1,IC50,[29],23.1 µM (inactive)
same,IC50,[31],11.6 µM (active)
same,IC50,[32],7.98 µM (active)
same,IC50,[30],> 64.6 µM (inactive)
O=C(COc1ccccc1)Nc1nnc(-c2ccccc2)o1,AC50,[33],93.8 µM (active)
